Test results reported in publication PMC7287953, “Potential Therapeutic Targeting of Coronavirus Spike Glycoprotein Priming” (Molecules, 2020).
Several values for one entry are separate records, joined by “and”; a condition that tells them apart may be missing. Equal entries are not always repeated. Where two headings read alike, the source gives them in different places.

How the values were obtained:
[1] = tested on: SARS-CoV2 surrogate viral particles; conditions: human cells; cited from earlier work
furin = molecular target: T1, furin (Homo sapiens, UniProt P09958); assay: Inhibition of furin activity, fluorescent substrate Pyr-RTKR-AMC; format: biochemical
T1 construct: made in house

hPC2 = molecular target: T2, hPC2 (Homo sapiens, UniProt P16519); assay: Specificity for furin-like PCs: hPC2 inhibition; format: biochemical; conditions: Table S2
T2 sequence (P16519 110-638): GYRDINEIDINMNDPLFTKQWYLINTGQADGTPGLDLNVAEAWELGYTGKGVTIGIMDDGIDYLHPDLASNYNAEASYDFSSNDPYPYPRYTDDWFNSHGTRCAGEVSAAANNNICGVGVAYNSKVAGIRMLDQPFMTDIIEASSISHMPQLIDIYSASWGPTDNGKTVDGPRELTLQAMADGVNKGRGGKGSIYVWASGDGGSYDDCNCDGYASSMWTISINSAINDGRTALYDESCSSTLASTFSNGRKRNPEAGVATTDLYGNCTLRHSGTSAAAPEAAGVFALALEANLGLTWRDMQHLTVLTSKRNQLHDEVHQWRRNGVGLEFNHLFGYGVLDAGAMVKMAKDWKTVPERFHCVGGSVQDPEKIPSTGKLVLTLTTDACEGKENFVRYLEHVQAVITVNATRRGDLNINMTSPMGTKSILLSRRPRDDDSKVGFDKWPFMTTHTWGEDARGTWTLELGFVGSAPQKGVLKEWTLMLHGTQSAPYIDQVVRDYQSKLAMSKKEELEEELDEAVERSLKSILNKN

[2] = mouse, in vivo, 30 mg/kg
hPC1/3 = molecular target: T3, hPC1/3 (Homo sapiens, UniProt P29120); assay: Inhibition of hPC1/3 activity, fluorescent substrate Pyr-RTKR-AMC; format: biochemical
T3 sequence (P29120 111-753): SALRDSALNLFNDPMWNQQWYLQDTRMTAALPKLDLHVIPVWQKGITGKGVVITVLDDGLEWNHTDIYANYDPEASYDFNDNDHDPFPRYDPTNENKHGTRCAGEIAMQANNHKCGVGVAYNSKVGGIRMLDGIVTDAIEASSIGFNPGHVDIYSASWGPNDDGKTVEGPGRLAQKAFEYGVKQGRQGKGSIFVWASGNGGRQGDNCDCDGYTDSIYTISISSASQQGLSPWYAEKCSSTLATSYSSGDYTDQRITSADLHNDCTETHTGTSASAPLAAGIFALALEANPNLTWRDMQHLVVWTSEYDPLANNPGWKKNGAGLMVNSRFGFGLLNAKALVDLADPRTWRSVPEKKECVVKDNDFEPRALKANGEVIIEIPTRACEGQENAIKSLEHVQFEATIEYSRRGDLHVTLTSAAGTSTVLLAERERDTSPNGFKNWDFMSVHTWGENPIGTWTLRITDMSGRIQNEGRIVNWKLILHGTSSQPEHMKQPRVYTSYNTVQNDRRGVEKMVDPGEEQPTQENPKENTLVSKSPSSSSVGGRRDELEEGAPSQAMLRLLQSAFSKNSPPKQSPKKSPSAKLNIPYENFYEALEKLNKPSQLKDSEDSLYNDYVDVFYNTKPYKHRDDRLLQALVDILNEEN

[3] = Toxicity study, I.P. dosing and blood chemistry
Plasma stability by LCMS = conditions: rat plasma, after 60 min incubation
in vivo = conditions: mouse
anthrax toxin LF/PA = tested on: anthrax toxin LF/PA; parameters: species or system Balb/c mice; conditions: mouse, in vivo
physchem = conditions: 25 °C, pH 7.2, aqueous buffer
[4] = molecular target: T4, trypsin from bovine pancreas (Bos taurus, UniProt P00760); assay: Inhibition of trypsin from bovine pancreas; format: biochemical; conditions: at 10 µM; trypsin as model enzyme for TMPRSS2
T4 construct: from tissue; host or cells: bovine pancreas
T4 sequence (P00760 24-246): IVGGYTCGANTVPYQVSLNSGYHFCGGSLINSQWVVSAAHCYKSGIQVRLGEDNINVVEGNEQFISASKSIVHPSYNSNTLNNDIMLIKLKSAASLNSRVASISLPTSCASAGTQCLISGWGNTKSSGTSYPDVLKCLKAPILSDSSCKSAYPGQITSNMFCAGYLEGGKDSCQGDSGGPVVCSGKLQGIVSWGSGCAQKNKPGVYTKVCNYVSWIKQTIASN

hPC7 = molecular target: T5, hPC7 (Homo sapiens, UniProt Q16549); assay: Specificity for furin-like PCs: hPC7 inhibition; format: biochemical; conditions: Table S2
T5 sequence (Q16549 142-785): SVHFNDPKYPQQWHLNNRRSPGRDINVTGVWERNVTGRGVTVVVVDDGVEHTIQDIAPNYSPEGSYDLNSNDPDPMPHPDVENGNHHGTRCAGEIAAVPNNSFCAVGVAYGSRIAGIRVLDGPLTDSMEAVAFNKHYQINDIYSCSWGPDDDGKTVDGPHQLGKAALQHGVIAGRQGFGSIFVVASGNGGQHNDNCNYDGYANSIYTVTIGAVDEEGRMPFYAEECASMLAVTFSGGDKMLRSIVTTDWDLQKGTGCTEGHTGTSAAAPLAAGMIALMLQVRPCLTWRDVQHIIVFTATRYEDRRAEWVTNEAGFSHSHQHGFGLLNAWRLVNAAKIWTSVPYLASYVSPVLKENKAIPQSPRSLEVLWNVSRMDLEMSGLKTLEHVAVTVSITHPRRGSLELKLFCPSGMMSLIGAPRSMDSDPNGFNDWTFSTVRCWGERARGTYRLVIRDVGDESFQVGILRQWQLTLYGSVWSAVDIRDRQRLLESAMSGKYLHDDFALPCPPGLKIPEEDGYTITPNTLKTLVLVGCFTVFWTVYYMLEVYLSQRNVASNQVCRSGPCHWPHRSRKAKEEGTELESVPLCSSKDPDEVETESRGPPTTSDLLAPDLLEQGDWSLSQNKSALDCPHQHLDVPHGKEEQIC

[5] = tested on: RAW 264.7 murine monocyte macrophages; format: cell-based

T1 sequence (P09958 108-794): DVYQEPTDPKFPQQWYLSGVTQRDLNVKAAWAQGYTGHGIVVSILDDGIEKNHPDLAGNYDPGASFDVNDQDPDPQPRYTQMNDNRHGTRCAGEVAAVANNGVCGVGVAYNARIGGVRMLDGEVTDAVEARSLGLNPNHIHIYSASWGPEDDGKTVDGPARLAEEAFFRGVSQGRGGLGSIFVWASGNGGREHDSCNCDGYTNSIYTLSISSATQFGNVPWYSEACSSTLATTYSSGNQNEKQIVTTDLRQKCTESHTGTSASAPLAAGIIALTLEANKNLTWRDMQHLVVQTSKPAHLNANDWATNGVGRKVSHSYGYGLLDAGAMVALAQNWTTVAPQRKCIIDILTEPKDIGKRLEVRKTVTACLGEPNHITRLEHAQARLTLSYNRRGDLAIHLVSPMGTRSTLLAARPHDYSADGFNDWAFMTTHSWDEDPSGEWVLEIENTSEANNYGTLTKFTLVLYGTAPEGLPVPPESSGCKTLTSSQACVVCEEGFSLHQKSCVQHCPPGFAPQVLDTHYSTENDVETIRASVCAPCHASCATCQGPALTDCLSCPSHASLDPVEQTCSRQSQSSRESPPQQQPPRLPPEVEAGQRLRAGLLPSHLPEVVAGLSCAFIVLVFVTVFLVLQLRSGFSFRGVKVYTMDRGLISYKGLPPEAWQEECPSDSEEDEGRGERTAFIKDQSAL

Structure (SMILES): CN(C)C(=O)COC(=O)Cc1ccc(OC(=O)c2ccc(NC(=N)N)cc2)cc1 [camostat]
- concentrations that attenuated (only partially) entry of SARS-CoV2 surrogate viral particles [1]: 10 to 50 µM
- inhibition of furin (in words) (furin): poor furin inhibitor
- inhibition of furin (in words) (furin; listed as camostat mesylate): did not appreciably inhibit furin

Structure (SMILES): CC(=O)N[C@@H](CCCNC(=N)N)C(=O)N[C@H](C(=O)N[C@@H](Cc1ccc(N=C(N)N)cc1)C(=O)NCc1ccc(C(=N)N)cc1)C(C)C [compound 1]
- IC50 (hPC2): 1860 nM
- absorption after oral administration (in words) [2]: insignificant adsorption
- IC50 (hPC1/3): 3 nM
- other blood chemistry values ([3]; 5 min after single 20 mg/kg injection): normal
- acute toxicity, blood chemistry finding ([3]; 5 min after single 20 mg/kg injection, compared to control group): gross hemolysis
- MTD ([3]; female, Balb/c, mouse, in vivo, ip): ~10 mg/kg
- mice that died ([3]; single dose 15 mg/kg I.P., 1 h after compound administration): all mice
- mice that died ([3]; single dose 20 mg/kg I.P., 15 min after compound injection): 2 out of 3
- plasma stability, intact (Plasma stability by LCMS): > 86%
- bioavailability (in vivo; %F I.P./I.V.): ~100%
- bioavailability (in vivo; %F P.O./I.V.): < 1%
- AUC (in vivo; ip, 3 mg/kg): 2600 ng·h/mL
- AUC (in vivo; iv, 1 mg/kg): 870 ng·h/mL
- AUC (in vivo; po, 30 mg/kg): 26 ng·h/mL
- MST (median survival time) (anthrax toxin LF/PA): 31.5 h and 52.5 h
- TTD (time to death) (anthrax toxin LF/PA): 48 h and 96 h
- solubility (physchem): > 1000 µM
- inhibition of trypsin [4]: can inhibit this enzyme
- IC50 (hPC7): 11800 nM
- EC50 protection of RAW macrophages from LF/PA-induced cell death [5]: low micromolar range
- IC50 (furin): 9 nM
